The text below walks through data of PMC7911889 (Viruses, 2021).

In the test the target is SARS-CoV-2 3CL^pro (Severe acute respiratory syndrome coronavirus 2, UniProt P0DTD1). The class given is cell-based.

GRL-0496: the “Effect on luciferase reporter activity / 3CL^pro inhibition (in words)” value is on record as “clearly inhibited SARS-CoV-2 3CL^pro”.
